According to PMC11235165, “Delocalized quinolinium-macrocyclic peptides, an atypical chemotype for CNS penetration” (Science Advances, 2024):
Where two headings read alike, the source gives them in different places.

Legend:
[1] = Hepatocyte clearance (human); assay type: in vitro ADME; settings: human hepatocytes
[2] = Brain tissue binding (fraction unbound); assay type: in vitro ADME; settings: read-out: Brain tissue (fu)
Text: Table 1. Key data for lead optimization. SD, standard deviation of the mean; SE, standard error of the mean; fu, fraction unbound; ND, not determined. | column: Brain tissue (fu)

[3] = Hepatocyte clearance (mouse); assay type: in vitro ADME; settings: mouse hepatocytes
hERG = hERG (Homo sapiens, UniProt Q12809); test: hERG inhibition; assay type: biochemical; settings: for inhibition at 25 µM: hERG (% inhibition at 25 μM)
Chain of hERG (Q12809 whole entry): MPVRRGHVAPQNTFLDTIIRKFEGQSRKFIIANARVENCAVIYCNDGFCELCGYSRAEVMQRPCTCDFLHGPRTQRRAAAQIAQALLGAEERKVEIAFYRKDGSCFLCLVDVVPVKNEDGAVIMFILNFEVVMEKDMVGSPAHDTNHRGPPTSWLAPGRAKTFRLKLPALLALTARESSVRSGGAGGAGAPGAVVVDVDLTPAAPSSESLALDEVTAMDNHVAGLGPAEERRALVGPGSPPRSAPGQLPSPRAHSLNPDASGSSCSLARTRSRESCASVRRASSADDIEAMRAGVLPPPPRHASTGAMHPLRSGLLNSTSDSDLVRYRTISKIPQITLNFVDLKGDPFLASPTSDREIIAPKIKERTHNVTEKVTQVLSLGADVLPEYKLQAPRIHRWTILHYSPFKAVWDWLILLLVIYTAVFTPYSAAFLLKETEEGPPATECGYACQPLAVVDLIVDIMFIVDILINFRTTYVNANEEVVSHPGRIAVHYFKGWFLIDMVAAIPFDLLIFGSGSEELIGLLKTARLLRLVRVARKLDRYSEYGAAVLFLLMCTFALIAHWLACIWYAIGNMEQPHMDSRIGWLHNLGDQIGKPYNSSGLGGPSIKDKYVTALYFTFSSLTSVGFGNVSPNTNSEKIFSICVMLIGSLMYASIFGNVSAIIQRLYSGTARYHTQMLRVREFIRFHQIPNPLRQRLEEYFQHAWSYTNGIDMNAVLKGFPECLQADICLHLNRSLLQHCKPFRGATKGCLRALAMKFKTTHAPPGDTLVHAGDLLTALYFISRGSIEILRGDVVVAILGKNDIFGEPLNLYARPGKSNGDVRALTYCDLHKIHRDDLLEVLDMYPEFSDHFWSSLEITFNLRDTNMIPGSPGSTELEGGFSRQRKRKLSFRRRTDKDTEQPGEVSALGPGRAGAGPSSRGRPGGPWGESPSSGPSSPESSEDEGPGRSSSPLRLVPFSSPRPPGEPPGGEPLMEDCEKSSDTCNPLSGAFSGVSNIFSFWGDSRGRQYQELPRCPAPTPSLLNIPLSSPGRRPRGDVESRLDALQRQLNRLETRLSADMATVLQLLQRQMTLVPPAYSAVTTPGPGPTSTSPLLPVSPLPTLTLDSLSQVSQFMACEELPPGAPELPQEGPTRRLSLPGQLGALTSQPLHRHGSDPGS

in vivo = settings: ABH, mouse, ip, 10 mg/kg; for level at 24 h: Brain concentrations at 24 hours
Experimental: (§1) The remaining five compounds were evaluated for plasma and brain levels in a pharmacokinetic experiment in mice.
Pharmacokinetic analysis.
(Cyprotex UK) using LCMSMS.

CypD = CypD (Homo sapiens, UniProt P30405); test: Fluorescence polarization cyclophilin D binding assay; settings: Table S7; focused SAR set; read-out: CypD Ki
Chain of CypD (P30405 30-207): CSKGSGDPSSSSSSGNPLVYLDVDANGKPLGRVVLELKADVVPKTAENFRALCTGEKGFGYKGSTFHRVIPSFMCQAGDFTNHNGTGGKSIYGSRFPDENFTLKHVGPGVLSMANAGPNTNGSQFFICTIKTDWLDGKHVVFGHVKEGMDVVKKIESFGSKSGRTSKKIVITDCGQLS
Experimental: (§2) This was determined using a fluorescence polarization assay ([12]).
Fluorescence Polarization assay.
(§3) Briefly, titration of a single probe concentration
measure binding affinities.

Cyclophilin A (CypA) = Cyclophilin A (CypA) (Homo sapiens, UniProt P62937); test: Fluorescence polarization cyclophilin A binding assay; settings: Table S7; focused SAR set; read-out: CypA Ki
Chain of Cyclophilin A (CypA) (P62937 whole entry): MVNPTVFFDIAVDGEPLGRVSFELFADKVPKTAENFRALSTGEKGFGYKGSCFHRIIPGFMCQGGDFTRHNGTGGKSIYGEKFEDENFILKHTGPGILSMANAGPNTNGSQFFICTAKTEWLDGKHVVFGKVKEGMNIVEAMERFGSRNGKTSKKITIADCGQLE
Experimental: as §2
Fluorescence Polarization assay.
as §3
measure binding affinities.
FP -probe. Enzyme, inhibitor and
(ph7.4)) supplemented with 1 mM PMSF.

[4] = mouse, in vivo; for Cl_obs: ip, 10 mg/kg
Experimental: as §1
Pharmacokinetic analysis.
(Cyprotex UK) using LCMSMS.

[5] = mouse, in vivo; for AUC(0-inf) / AUC(0-t) / half-life: ip, 10 mg/kg
Experimental: as §1
Pharmacokinetic analysis.
(Cyprotex UK) using LCMSMS.

TRIM-CypA = target: T1, TRIM-CypA (Homo sapiens, UniProt P62937+Q6PIZ9); assay type: cell-based; settings: CRFK-TRIMCypA cells; 0.5-20 μM; 48 hours; GFP-positive cells by flow cytometry
T1 construct: expressed in transfected cells; host or cells: CRFK (Crandell-Rees Feline Kidney) cells transduced with MLV EXN-TRIM-CypA vector, G418 selected
T1 sequence (P62937 2-165, one chain of several): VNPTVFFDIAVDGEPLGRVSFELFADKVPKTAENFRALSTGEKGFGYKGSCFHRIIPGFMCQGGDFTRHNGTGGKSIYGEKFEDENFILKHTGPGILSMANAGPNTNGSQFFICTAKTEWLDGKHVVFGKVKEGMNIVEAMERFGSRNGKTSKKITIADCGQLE

[6] = system: CRFK and CRFK-TRIMCypA cells; test: MTT viability of CRFK and CRFK-TRIMCypA cells; assay type: cell-based, Feline; settings: 48 hours, up to 20 μM
Experimental: Assay for cellular CypA selectivity
bromide (MTT) assay (Sigma) was performed.
100 μL solubilisation solution (10 % SDS

[7] = Plasma protein binding (fraction unbound); assay type: in vitro ADME; settings: read-out: Plasma protein (fu)
[8] = system: mitochondrial permeability transition pore (mPTP); test: Calcium retention capacity (CRC) assay in isolated liver mitochondria; assay type: biochemical, rat
[9] = Pharmacokinetic study, plasma and brain levels by LC-MS/MS;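 note: ABH mice, four per group, dosed intraperitoneally, plasma and brain taken at set times after euthanasia, drug levels quantified by LC-MS/MS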
Experimental: as §1
Pharmacokinetic analysis.
(Cyprotex UK) using LCMSMS.

[10] = design: method as in PMID 26352530; settings: cited from earlier work
Caco-2 cells = system: Caco-2 cells; design: method as in PMID 26352530; settings: cited from earlier work

Compound	hepatocyte CLint [1] [µL/min/1e6 cells]	fraction unbound [2]	hepatocyte CLint [3] [µL/min/1e6 cells]	inhibition at 25 µM (hERG) [%]	level at time molar at 24 h (in vivo) [nM]	level at 24 h (in vivo) [ng/mL]	Cl_obs [4]	AUC(0-inf) [5] [µg·h/mL]	AUC(0-t) [5] [µg·h/mL]	half-life [5] [h]	fraction unbound [7]	also measured
CC[C@@H]1NC(=O)[C@H]([C@H](O)[C@H](C)C/C=C/CCC[n+]2ccc(N3CCOCC3)c3ccc(C(F)(F)F)cc32)N(C)C(=O)[C@H](C(C)C)N(C)C(=O)[C@H](CC(C)C)N(C)C(=O)[C@H](CC(C)C)N(C)C(=O)[C@@H](C)NC(=O)[C@H](C)NC(=O)[C@H](CC(C)C)N(C)C(=O)[C@H](C(C)C)NC(=O)[C@H](CC(C)C)N(C)C(=O)CN(C)C1=O [JP1-138]	7.62	0.00084	9.61	37.7	391	592	4.43 × 10^−05 (mg/kg)/(ng/ml).hour	226	216	5.81	–	Ki (CypD): 64 ± 16 nM; Ki (Cyclophilin A (CypA)): 42 nM; Brain AUC as % of the plasma AUC [4]: about 2%; AUC [5]: 198 µg·h/mL
CC[C@@H]1NC(=O)[C@H]([C@H](O)[C@H](C)C/C=C/CCC[n+]2ccc(N(C)C)c3ccc(C(F)(F)F)cc32)N(C)C(=O)[C@H](C(C)C)N(C)C(=O)[C@H](CC(C)C)N(C)C(=O)[C@H](CC(C)C)N(C)C(=O)[C@@H](C)NC(=O)[C@H](C)NC(=O)[C@H](CC(C)C)N(C)C(=O)[C@H](C(C)C)NC(=O)[C@H](CC(C)C)N(C)C(=O)CN(C)C1=O [JW76]	5.62	–	6.81	16.3	–	–	–	–	–	–	0.0039	Rescue of HIV-1 infectivity of restricting (TRIM-CypA) cells (TRIM-CypA): rescued infectivity poorly and only at 20 μM; hERG activity (hERG): little hERG activity; Toxicity to non-restricting and restricting cells (MTT) [6]: not toxic at any concentration tested; CRC inhibition % ([8]; Table S4 / Fig. S2, rat liver mitochondria, 500 nM, (Treated-NonTreated)/NonTreated)*100): 54.7%; CRC % inhibition at 10 nM ([8]; Table S7, 10 nM): 32.9%; level at 1 h ([9]; ABH, mouse, brain, ip, Brain ng/mL, mice, 1 h): 668 ng/mL; level at 4 h ([9]; ABH, mouse, brain, ip, Brain ng/mL, mice, 4 h): 545 ng/mL; level at 1 h ([9]; ABH, mouse, plasma, ip, Plasma (ng/mL), mice, 1 h): 50800 ng/mL; Detectability in the brain at 48 hours ([9]; longer-term pharmacokinetic study, 48 hours): not detectable; Brain ([9]; mice, 1 h): 668 ng/mL; AUC ([9]; mouse, in vivo): 67 µg·h/mL
COc1ccc2cc3[n+](cc2c1OC)CCc1cc2c(cc1-3)OCO2 [Berberine, berberine]	–	–	–	–	–	–	–	–	–	–	–	PAMPA permeability [10]: 1 to 1.2 ×10⁻⁶ cm/s; Caco-2 cell line permeability AP-BL (Caco-2 cells; AP-BL): 2.59 ×10⁻⁶ cm/s; Caco-2 cell line permeability BL-AP (Caco-2 cells; BL-AP): 25.16 ×10⁻⁶ cm/s
CC[C@@H]1NC(=O)[C@H]([C@H](O)[C@H](C)C/C=C/CCC[n+]2ccc(N3CCCCC3)c3ccc(C(F)(F)F)cc32)N(C)C(=O)[C@H](C(C)C)N(C)C(=O)[C@H](CC(C)C)N(C)C(=O)[C@H](CC(C)C)N(C)C(=O)[C@@H](C)NC(=O)[C@H](C)NC(=O)[C@H](CC(C)C)N(C)C(=O)[C@H](C(C)C)NC(=O)[C@H](CC(C)C)N(C)C(=O)CN(C)C1=O [JP1-164]	22.4	0.01	5.89	14.2	380	574	7.09 × 10^−05 (mg/kg)/(ng/ml).hour	141	134	5.68	0.69	–
